# Values of other authors as cited in patent publication US20020031490A1, “Method for preparing resinates” (priority 2000, published 2002).
smiles,measurement,value
COc1ccc2c(c1)c(CC(=O)O)c(C)n2C(=O)c1ccc(Cl)cc1 [indomethacin],solubility of indomethacin in water,14 ppm
